System: tau protein
Test: Tau protein in vitro degradation assay (Western blot, Tau-13 antibody)
Type: cell-based, human
Conditions: SK-N-SH cells, 72 hours of incubation; for Degradation activity* (highest amount of degradation observed at any dosage; tau protein remaining) / Degradation activity (tau protein remaining; highest amount of degradation observed at any dosage): tested at 300 nM, 100 nM, 33 nM and 11 nM, Western blot, Tau-13 antibody; for Activity* (highest amount of degradation observed at any dosage, as tau protein remaining): tested at 1000 nM, 300 nM and 100 nM
Procedure, shortened: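 SK-N-SH cells, seeded ≥18 h beforehand, were incubated 72 h with tau PROTACs at 1000, 300 and 100 nM or at 300, 100, 33 and 11 nM. Lysates in protease-inhibitor buffer were resolved by SDS-PAGE; tau quantified by Western blot with Tau-13 antibody recognising all human tau forms.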

## O=C1CCC(N2C(=O)c3c(F)c(F)c(OCCOCCOCCOCCOCCOc4ccc(-c5ccc6c(c5)[nH]c5ccncc56)cn4)c(F)c3C2=O)C(=O)N1 (centres unmarked) [Compound 72, 5-((14-((5-(5H-pyrido[4,3-b]indol-7-yl)pyridin-2-yl)oxy)-3,6,9,12-tetraoxatetradecyl)oxy)-2-(2,6-dioxopiperidin-3-yl)-4,6,7-trifluoroisoindoline-1,3-dione]
  Degradation activity* (highest amount of degradation observed at any dosage; tau protein remaining): C (>80% tau protein remaining after 72 hours of incubation with the test compound)

## Cn1c2ccncc2c2ccc(-c3ccc(O[C@H]4C[C@@H](Oc5ccc(C#CCCCCOc6ccc7c(c6)C(=O)N(C6CCC(=O)NC6=O)C7=O)cn5)C4)nc3)cc21 (some centres unmarked) [Compound 144, 2-(2,6-dioxopiperidin-3-yl)-5-(6-(6-((1s,3s)-3-(5-(5-methyl-5H-pyrido[4,3-b]indol-7-yl)pyridin-2-yloxy)cyclobutoxy)pyridin-3-yl)hex-5-ynyloxy)isoindoline-1,3-dione]
  Degradation activity* (highest amount of degradation observed at any dosage; tau protein remaining): C (>80% tau protein remaining after 72 hours of incubation with the test compound)

## O=C1CCC(N2C(=O)c3ccc(OCCCCCC(=O)N4CCC(O[C@H]5C[C@H](Oc6ccc(-c7ccc8c(c7)[nH]c7ccncc78)cn6)C5)CC4)cc3C2=O)C(=O)N1 (some centres unmarked) [Compound 164, 5-(6-(4-((1r,3r)-3-(5-(5H-pyrido[4,3-b]indol-7-yl)pyridin-2-yloxy)cyclobutoxy)piperidin-1-yl)-6-oxohexyloxy)-2-(2,6-dioxopiperidin-3-yl)isoindoline-1,3-dione]
  Degradation activity* (highest amount of degradation observed at any dosage; tau protein remaining): C (>80% tau protein remaining after 72 hours of incubation with the test compound)

## Cn1c2ccncc2c2ccc(-c3ccc(O[C@H]4C[C@@H](OCCCOCCCOC5CN(c6ccc7c(c6)C(=O)N(C6CCC(=O)NC6=O)C7=O)C5)C4)nc3)cc21 (some centres unmarked) [Compound 170, 2-(2,6-dioxopiperidin-3-yl)-5-(3-(3-(3-((1 s,3 s)-3-((5-(5-methyl-5H-pyrido[4,3-b]indol-7-yl)pyridin-2-yl)oxy)cyclobutoxy)propoxy)propoxy)azetidin-1-yl)isoindoline-1,3-dione]
  Degradation activity (tau protein remaining; highest amount of degradation observed at any dosage): A (≤50% tau protein remaining after 72 hours of incubation with the test compound)

## Cn1c2ccncc2c2ccc(N3CCN(CCCOCCOCCOCCOCCOc4ccc5c(c4)C(=O)N(C4CCC(=O)NC4=O)C5=O)CC3)cc21 (centres unmarked) [Compound 210, 2-(2,6-dioxopiperidin-3-yl)-5-((15-(4-(5-methyl-5H-pyrido[4,3-b]indol-7-yl)piperazin-1-yl)-3,6,9,12-tetraoxapentadecyl)oxy)isoindoline-1,3-dione]
  Degradation activity (tau protein remaining; highest amount of degradation observed at any dosage): C (>80% tau protein remaining after 72 hours of incubation with the test compound)

## Cn1c2ccncc2c2ccc(-c3ccc(OCCCCCOCCCCCOC4CN(c5ccc6c(c5)C(=O)N(C5CCC(=O)NC5=O)C6=O)C4)nc3)cc21 (centres unmarked) [Compound 79, 2-(2,6-dioxopiperidin-3-yl)-5-(3-((5-((5-((5-(5-methyl-5H-pyrido[4,3-b]indol-7-yl)pyridin-2-yl)oxy)pentyl)oxy)pentyl)oxy)azetidin-1-yl)isoindoline-1,3-dione]
  Degradation activity* (highest amount of degradation observed at any dosage; tau protein remaining): A (≤50% tau protein remaining after 72 hours of incubation with the test compound)

## Cc1ncsc1-c1ccc(CNC(=O)[C@@H]2C[C@@H](O)CN2C(=O)[C@H](C(C)C)N2Cc3ccccc3C2=O)c(OCCOCCOCCOCCOc2ccc(-c3ccc4c(c3)[nH]c3ccncc34)cn2)c1 [Compound 196, (2S,4R)—N-(2-(2-(2-(2-(2-((5-(5H-pyrido[4,3-b]indol-7-yl)pyridin-2-yl)oxy)ethoxy)ethoxy)ethoxy)ethoxy)-4-(4-methylthiazol-5-yl)benzyl)-4-hydroxy-1-((S)-3-methyl-2-(1-oxoisoindolin-2-yl)butanoyl)pyrrolidine-2-carboxamide]
  Degradation activity (tau protein remaining; highest amount of degradation observed at any dosage): C (>80% tau protein remaining after 72 hours of incubation with the test compound)

## O=C1CCC(N2C(=O)c3ccc(N4CCN(CCCO[C@H]5C[C@H](Oc6ccc(-c7ccc8c(c7)[nH]c7ccncc78)cn6)C5)CC4)cc3C2=O)C(=O)N1 (some centres unmarked) [Compound 60, 5-(4-(3-((1r,3r)-3-((5-(5H-pyrido[4,3-b]indol-7-yl)pyridin-2-yl)oxy)cyclobutoxy)propyl)piperazin-1-yl)-2-(2,6-dioxopiperidin-3-yl)isoindoline-1,3-dione]
  Degradation activity* (highest amount of degradation observed at any dosage; tau protein remaining): C (>80% tau protein remaining after 72 hours of incubation with the test compound)

## O=C1CCC(N2C(=O)c3ccc(OCC#Cc4ccc(O[C@H]5C[C@H](Oc6ccc(-c7ccc8c(c7)[nH]c7ccncc78)cn6)C5)cn4)cc3C2=O)C(=O)N1 (some centres unmarked) [Compound 73, 5-((3-(5-((1r,3r)-3-((5-(5H-pyrido[4,3-b]indol-7-yl)pyridin-2-yl)oxy)cyclobutoxy)pyridin-2-yl)prop-2-yn-1-yl)oxy)-2-(2,6-dioxopiperidin-3-yl)isoindoline-1,3-dione]
  Degradation activity* (highest amount of degradation observed at any dosage; tau protein remaining): A (≤50% tau protein remaining after 72 hours of incubation with the test compound)

## Cc1ncoc1-c1ccc(CNC(=O)[C@@H]2C[C@@H](O)CN2C(=O)[C@@H](NC(=O)COCCOCCOCCOCCN2CCN(c3ccn4c(n3)nc3ccccc34)CC2)C(C)(C)C)cc1 [Compound 12, (2S,4R)-1-((S)-17-(4-(benzo[4,5]imidazo[1,2-a]pyrimidin-2-yl)piperazin-1-yl)-2-(tert-butyl)-4-oxo-6,9,12,15-tetraoxa-3-azaheptadecanoyl)-4-hydroxy-N-(4-(4-methyloxazol-5-yl)benzyl)pyrrolidine-2-carboxamide]
  Activity* (highest amount of degradation observed at any dosage, as tau protein remaining): C (>80% tau protein remaining after 72 hours of incubation with the test compound)

## O=C1CCC(N2C(=O)c3ccc(OCC#Cc4ccc(O[C@H]5C[C@@H](Oc6ccc(-c7ccc8c(c7)[nH]c7ccncc78)cn6)C5)cn4)cc3C2=O)C(=O)N1 (some centres unmarked) [Compound 183, 5-((3-(5-((1s,3 s)-3-((5-(5H-pyrido[4,3-b]indol-7-yl)pyridin-2-yl)oxy)cyclobutoxy)pyridin-2-yl)prop-2-yn-1-yl)oxy)-2-(2,6-dioxopiperidin-3-yl)isoindoline-1,3-dione]
  Degradation activity (tau protein remaining; highest amount of degradation observed at any dosage): A (≤50% tau protein remaining after 72 hours of incubation with the test compound)

## Cc1ncsc1-c1ccc([C@H](C)NC(=O)[C@@H]2C[C@@H](O)CN2C(=O)[C@@H](NC(=O)COCCCOCCCOc2ccc3nc(-c4ccc(N(C)C)cc4)ccc3c2)C(C)(C)C)cc1 [Compound 36, (2S,4R)-1-((S)-2-(2-(3-(3-(2-(4-(dimethylamino)phenyl)quinolin-6-yloxy)propoxy)propoxy)acetamido)-3,3-dimethylbutanoyl)-4-hydroxy-N—((S)-1-(4-(4-methylthiazol-5-yl)phenyl)ethyl)pyrrolidine-2-carboxamide]
  Activity* (highest amount of degradation observed at any dosage, as tau protein remaining): C (>80% tau protein remaining after 72 hours of incubation with the test compound)

## Cc1ncoc1-c1ccc([C@H](C)NC(=O)[C@@H]2C[C@@H](O)CN2C(=O)[C@@H](NC(=O)COCCOCCOCCN2CCN(c3ccn4c(n3)nc3ccccc34)CC2)C(C)(C)C)cc1 [Compound 19, (2S,4R)-1-((S)-14-(4-(benzo[4,5]imidazo[1,2-a]pyrimidin-2-yl)piperazin-1-yl)-2-(tert-butyl)-4-oxo-6,9,12-trioxa-3-azatetradecanoyl)-4-hydroxy-N—((S)-1-(4-(4-methyloxazol-5-yl)phenyl)ethyl)pyrrolidine-2-carboxamide]
  Activity* (highest amount of degradation observed at any dosage, as tau protein remaining): C (>80% tau protein remaining after 72 hours of incubation with the test compound)

## O=C1CCC(N2C(=O)c3cccc(NCCOCCOCCOCCN4CCN(c5ccn6c(n5)nc5ccccc56)CC4)c3C2=O)C(=O)N1 (centres unmarked) [Compound 25, 4-((2-(2-(2-(2-(4-(benzo[4,5]imidazo[1,2-a]pyrimidin-2-yl)piperazin-1-yl)ethoxy)ethoxy)ethoxy)ethyl)amino)-2-(2,6-dioxopiperidin-3-yl)isoindoline-1,3-dione]
  Activity* (highest amount of degradation observed at any dosage, as tau protein remaining): C (>80% tau protein remaining after 72 hours of incubation with the test compound)

## Cn1c2ccncc2c2ccc(-c3ccc(O[C@H]4C[C@H](OCCCCCCOC(C5CN(c6ccc7c(c6)C(=O)N(C6CCC(=O)NC6=O)C7=O)C5)C(F)(F)F)C4)nc3)cc21 (some centres unmarked) [Compound 154, 2-(2,6-dioxopiperidin-3-yl)-5-(3-(2,2,2-trifluoro-1-((6-((1r,3r)-3-((5-(5-methyl-5H-pyrido[4,3-b]indol-7-yl)pyridin-2-yl)oxy)cyclobutoxy)hexyl)oxy)ethyl)azetidin-1-yl)isoindoline-1,3-dione]
  Degradation activity* (highest amount of degradation observed at any dosage; tau protein remaining): C (>80% tau protein remaining after 72 hours of incubation with the test compound)

## Cn1c2ccncc2c2ccc(-c3cnc(OCCOCCOCCOCCOCCOc4ccc5c(c4)C(=O)N(C4CCC(=O)NC4=O)C5=O)c(F)c3)cc21 (centres unmarked) [Compound 139, 2-(2,6-dioxopiperidin-3-yl)-5-((14-((3-fluoro-5-(5-methyl-5H-pyrido[4,3-b]indol-7-yl)pyridin-2-yl)oxy)-3,6,9,12-tetraoxatetradecyl)oxy)isoindoline-1,3-dione]
  Degradation activity* (highest amount of degradation observed at any dosage; tau protein remaining): B (≤80% and >50% tau protein remaining after 72 hours of incubation with the test compound)

## Cc1ncsc1-c1ccc(CNC(=O)[C@@H]2C[C@@H](O)CN2C(=O)[C@@H](NC(=O)COCCOCCOCCOCCOc2ccc(-c3ccc4c(c3)[nH]c3ccncc34)cn2)C(C)(C)C)cc1 [Compound 6, (2S,4R)-1-((S)-17-(5-(5H-pyrido[4,3-b]indol-7-yl)pyridin-2-yloxy)-2-tert-butyl-4-oxo-6,9,12,15-tetraoxa-3-azaheptadecane)-4-hydroxy-N-(4-(4-methylthiazol-5-yl)benzyl)pyrrolidine-2-carboxamide]
  Activity* (highest amount of degradation observed at any dosage, as tau protein remaining): C (>80% tau protein remaining after 72 hours of incubation with the test compound)
